Broadly, the fraction unbound is the share of the substance not bound to proteins or other matrix. The Km is the substrate concentration at which the rate is half of its maximum.

The structures appear in SMILES notation. “And” between values parts separate entries of the source, which are not always exact repeats. Identical values can stand only once. Like-named read-outs stand apart in the source and are kept apart here.

Here are results for 3 molecules from paper PMC12163485 (Drug Metabolism and Disposition, 2025).

Data set [1] addresses T1, human OCT1 (hOCT1) (Homo sapiens, UniProt O15245).
T1 sequence (O15245 1-554): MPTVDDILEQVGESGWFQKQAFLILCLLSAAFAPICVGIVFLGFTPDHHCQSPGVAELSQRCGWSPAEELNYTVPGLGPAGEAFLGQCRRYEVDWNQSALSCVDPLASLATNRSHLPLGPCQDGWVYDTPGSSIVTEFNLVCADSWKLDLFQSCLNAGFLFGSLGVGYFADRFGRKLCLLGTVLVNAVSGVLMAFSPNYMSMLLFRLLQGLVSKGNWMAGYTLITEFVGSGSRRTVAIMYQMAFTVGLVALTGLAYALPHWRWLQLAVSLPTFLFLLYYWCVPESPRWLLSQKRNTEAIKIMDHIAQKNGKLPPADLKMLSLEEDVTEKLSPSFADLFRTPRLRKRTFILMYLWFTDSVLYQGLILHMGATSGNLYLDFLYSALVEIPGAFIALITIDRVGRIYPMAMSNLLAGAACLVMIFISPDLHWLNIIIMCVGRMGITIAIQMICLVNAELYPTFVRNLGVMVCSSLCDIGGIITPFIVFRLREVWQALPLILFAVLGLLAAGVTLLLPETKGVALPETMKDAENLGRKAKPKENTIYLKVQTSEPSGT
Nature of the data set: Inhibition of OCT1-mediated uptake of the cocktail substrates in HEK293 cells overexpressing human OCT1. As to conditions: for IC50: human OCT1, mean ± SD.

A short description of data set [2]: Pharmacokinetic parameters used for estimating the potential for DDIs. As to conditions: for Imax, portal: Iin,max=Imax+Fa×ka×D/Qh, Qh 97 L/h, Fa 1, Imax for fenoterol and ipratropium; for ka: first-order absorption rate constant, calculated manually from available pharmacokinetic parameters. It is filed as in vivo, human. Here is the method: (§1) Ka was calculated manually based on available pharmacokinetic parameters.

For data set [3], the target named is T2, mouse OCT1 (Mus musculus, UniProt O08966).
T2 sequence (O08966 1-556): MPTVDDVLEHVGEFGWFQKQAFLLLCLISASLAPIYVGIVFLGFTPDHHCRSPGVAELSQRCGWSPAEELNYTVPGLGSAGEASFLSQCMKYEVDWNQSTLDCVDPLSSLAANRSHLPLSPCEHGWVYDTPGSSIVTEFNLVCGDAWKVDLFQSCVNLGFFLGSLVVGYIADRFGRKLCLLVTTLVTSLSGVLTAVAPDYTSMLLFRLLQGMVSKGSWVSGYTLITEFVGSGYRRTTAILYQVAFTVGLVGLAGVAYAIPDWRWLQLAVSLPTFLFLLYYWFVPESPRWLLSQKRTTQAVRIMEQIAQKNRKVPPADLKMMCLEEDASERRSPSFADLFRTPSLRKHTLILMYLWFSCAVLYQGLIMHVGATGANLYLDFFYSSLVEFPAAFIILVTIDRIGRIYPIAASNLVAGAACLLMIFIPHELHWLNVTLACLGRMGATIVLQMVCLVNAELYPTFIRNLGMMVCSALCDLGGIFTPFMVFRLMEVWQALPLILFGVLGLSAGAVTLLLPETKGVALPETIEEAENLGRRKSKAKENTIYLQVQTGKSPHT
As to the method: Therefore, the calculation method used for hepatic uptake transporters such as organic anion transporting polypeptide (OATP) 1B1 and OATP1B3 was also applied for OCT1.
as §1

For data set [4] the following is noted: cited from earlier work; for cmax = Imax: dose and route as in Supplemental Table 4, ref Hardman, 2018, fenoterol Tzvetkov et al; for cmax = Imax / fraction unbound: ipratropium Zhang et al, 2023; for fraction unbound: fraction unbound in plasma, ref Hardman, 2018, Lombardo et al (2018), fenoterol Tzvetkov et al; for tmax: p.o., ref Hardman, 2018.
Data set [5] relates to OCT1. The note with it: read-out: inhibitory potency for metformin uptake via OCT1; substrate metformin; ref Ahlin et al, 2011; Panfen et al, 2019; cited from earlier work.
In a further data set the target is T3, human OCTN2 (hOCTN2) (Homo sapiens, UniProt O76082).
T3 construct: expressed in transfected cells
T3 sequence (O76082 1-557): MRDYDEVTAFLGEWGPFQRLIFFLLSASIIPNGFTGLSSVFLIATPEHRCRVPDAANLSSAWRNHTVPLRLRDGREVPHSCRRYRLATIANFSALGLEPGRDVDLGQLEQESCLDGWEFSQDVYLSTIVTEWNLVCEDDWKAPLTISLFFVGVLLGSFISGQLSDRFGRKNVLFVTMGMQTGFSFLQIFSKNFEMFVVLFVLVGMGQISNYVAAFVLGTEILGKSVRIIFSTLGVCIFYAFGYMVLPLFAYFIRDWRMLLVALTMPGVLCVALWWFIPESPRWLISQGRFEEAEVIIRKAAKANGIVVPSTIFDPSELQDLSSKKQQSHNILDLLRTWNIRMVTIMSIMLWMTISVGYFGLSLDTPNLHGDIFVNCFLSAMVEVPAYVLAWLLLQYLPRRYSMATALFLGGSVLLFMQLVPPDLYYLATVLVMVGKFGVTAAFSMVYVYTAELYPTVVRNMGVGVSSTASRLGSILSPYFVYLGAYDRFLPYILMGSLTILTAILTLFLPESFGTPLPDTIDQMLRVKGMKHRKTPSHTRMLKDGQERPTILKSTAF
Nature of the data set: Uptake of the extended cocktail by HEK293 cells overexpressing hOCTN2. As to conditions: Fig. 6. It is filed as in vitro ADME.

A further data set addresses T4, human OCTN1 (hOCTN1) (Homo sapiens, UniProt Q9H015).
T4 construct: expressed in transfected cells
T4 sequence (Q9H015 1-551): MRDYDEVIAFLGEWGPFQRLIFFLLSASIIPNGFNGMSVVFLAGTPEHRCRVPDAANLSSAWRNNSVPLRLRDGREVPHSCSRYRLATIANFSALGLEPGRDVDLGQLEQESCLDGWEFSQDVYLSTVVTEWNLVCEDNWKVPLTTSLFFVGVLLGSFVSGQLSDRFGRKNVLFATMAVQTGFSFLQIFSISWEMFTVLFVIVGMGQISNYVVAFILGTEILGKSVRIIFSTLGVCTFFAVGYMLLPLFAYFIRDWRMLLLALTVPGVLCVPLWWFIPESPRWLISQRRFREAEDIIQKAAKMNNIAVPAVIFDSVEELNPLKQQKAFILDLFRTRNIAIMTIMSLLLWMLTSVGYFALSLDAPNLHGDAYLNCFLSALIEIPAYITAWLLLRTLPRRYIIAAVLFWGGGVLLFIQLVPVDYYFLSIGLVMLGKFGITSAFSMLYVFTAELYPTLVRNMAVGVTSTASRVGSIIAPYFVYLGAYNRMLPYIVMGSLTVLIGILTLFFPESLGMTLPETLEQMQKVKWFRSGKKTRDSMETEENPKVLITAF
Nature of the data set: Uptake of the extended cocktail by HEK293 cells overexpressing hOCTN1. The note with it: Fig. 6. It is filed as in vitro ADME.

Data set [6] concerns the target T1, human OCT1 (hOCT1). Also noted: expressed in transfected cells; empty vector control pcDNA5; method as in ref column References of Table 2 (Tzvetkov et al, 2018; Morse et al, 2020; Jensen et al, 2020; Meyer et al, 2019, 2022; Wittern et al, 2024 and own unpublished data; Elsby et al, 2017). As to conditions: literature values; References of Table 2 (Tzvetkov et al, 2018; Morse et al, 2020; Jensen et al, 2020; Meyer et al, 2019, 2022; Wittern et al, 2024 and own unpublished data; Elsby et al, 2017); cited from earlier work.

Another data set has as its target T5, human OCT2 (hOCT2) (Homo sapiens, UniProt O15244).
T5 construct: expressed in transfected cells
T5 sequence (O15244 1-555): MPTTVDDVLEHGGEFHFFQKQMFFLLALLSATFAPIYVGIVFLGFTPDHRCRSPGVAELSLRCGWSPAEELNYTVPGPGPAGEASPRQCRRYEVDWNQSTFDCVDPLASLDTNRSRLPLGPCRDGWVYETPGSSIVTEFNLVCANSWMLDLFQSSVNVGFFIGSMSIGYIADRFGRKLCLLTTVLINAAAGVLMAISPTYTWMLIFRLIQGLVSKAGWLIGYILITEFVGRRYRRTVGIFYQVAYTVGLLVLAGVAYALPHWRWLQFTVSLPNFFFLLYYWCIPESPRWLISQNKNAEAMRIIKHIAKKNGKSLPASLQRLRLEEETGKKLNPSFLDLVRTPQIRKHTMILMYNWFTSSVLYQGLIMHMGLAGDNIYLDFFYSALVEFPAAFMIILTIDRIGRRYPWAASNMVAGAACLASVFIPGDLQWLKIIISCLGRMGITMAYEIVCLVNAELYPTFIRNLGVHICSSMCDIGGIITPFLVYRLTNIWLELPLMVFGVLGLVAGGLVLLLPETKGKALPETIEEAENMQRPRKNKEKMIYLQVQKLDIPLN
The data set is described as follows: Uptake of the extended cocktail by HEK293 cells overexpressing hOCT2. It is filed as in vitro ADME. The note with it: Fig. 6.

The target in data set [7] is T1, human OCT1 (hOCT1).
Data set [8] concerns the target T2, mouse OCT1. The data set is described as follows: Uptake of the cocktail by HEK293 cells overexpressing mouse Oct1. The note with it: fold change to the negative control, n = 12. As to the method:
(§2) Significance was calculated using Mann–Whitney U test. n = 5–8 independent experiments.

Data set [9] deals with T6, OCT1 (Homo sapiens, UniProt O15245).
T6 sequence (O15245 1-554): T1 sequence (O15245 1-554)
The data set is described as follows: DDI risk R calculated from IC50 at human OCT1. The note with it: R=1+fup×Iin,max/IC50, cutoff R ≥ 1.1.

The subject of a further data set is mOct1. Also on record: method as in ref column References of Table 2 (Morse et al, 2020; Jensen et al, 2020; Meyer et al, 2022). The note with it: literature values; References of Table 2 (Morse et al, 2020; Jensen et al, 2020; Meyer et al, 2022); cited from earlier work.
The target of data set [10] is T6, OCT1. Nature of the data set: Uptake of the cocktail by HEK293 cells overexpressing human OCT1. As to the method: as §2

`C=C[C@H]1C[N@@]2CC[C@H]1C[C@@H]2[C@@H](O)c1ccnc2ccc(OC)cc12` [Quinidine, quinidine]: the “zolmitriptan uptake inhibited more potently than sumatriptan uptake” value on human OCT1 (hOCT1) [1] is on record as 2.9 fold. Also, in data set [2], the “Imax, portal” value is 6908 ng/mL and the ka was 1.36 h⁻¹. Further, the “DDI risk R, victim drug trospium” value at mouse OCT1 [3] is 1.23. In [4], the “cmax = Imax” value was 1300 ng/mL, the fraction unbound is 0.13 and the tmax was 2.00 h. In the data set on OCT1 [5], the IC50 was 7.7 µM.
With `C[N+](C)(C)C[C@H](O)CC(=O)[O-]` [L-carnitine], the “transport by OCTN2” value at human OCTN2 (hOCTN2) is recorded as “transported only L-carnitine”. Besides, the “transport by OCTN1” value at human OCTN1 (hOCTN1) is “transported both L-carnitine and L-ergothioneine”.
For `O=C(O[C@H]1C[C@H]2CC[C@@H](C1)[N+]21CCCC1)C(O)(c1ccccc1)c1ccccc1` [Trospium, trospium], on human OCT1 (hOCT1) [6], the Km is 16.1 µM. Moreover, the “transport by OCT2” value at human OCT2 (hOCT2) was “transported only by OCT1 and OCT2”. Moreover, the IC50 at human OCT1 (hOCT1) [1] (IC50 for inhibition of fenoterol uptake, substrate (victim) fenoterol 0.5 μM in cocktail) stood at 15.8 ± 1.87 µM. Moreover, the IC50 against human OCT1 (hOCT1) [1] (IC50 for inhibition of ipratropium uptake, substrate (victim) ipratropium 0.5 μM in cocktail) turned out to be 9.37 ± 0.83 µM. The same molecule came in with an IC50 on human OCT1 (hOCT1) [1] (IC50 for inhibition of methylnaltrexone uptake, substrate (victim) methylnaltrexone 1 μM in cocktail) of 14.7 ± 1.95 µM. Also, the IC50 against human OCT1 (hOCT1) [1] (IC50 for inhibition of sumatriptan uptake, substrate (victim) sumatriptan 0.5 μM in cocktail) worked out at 16.8 ± 2.03 µM. At human OCT1 (hOCT1) [1] (IC50 for inhibition of zolmitriptan uptake, substrate (victim) zolmitriptan 0.5 μM in cocktail), the IC50 was 10 ± 1.59 µM. In data set [2], the “Imax, portal” value was 89.63 ng/mL and the ka is 0.273 h⁻¹. Besides, in data set [2] (human, in vivo, po, read-out: ke (converted)), the k el is 1.94e-05 s⁻¹. Moreover, the “I max, portal, u” value in data set [2] (unbound maximum inhibitor concentration at the inlet of the liver) is reported as 0.08 µM. Moreover, on human OCT1 (hOCT1) [7], the IC50 is 12.4 µM and 8.14 µM. Also, the “mouse Oct1 uptake [fold change to pcDNA5]” value on mouse OCT1 [8] is on record as 26.9 fold change to pcDNA5. On OCT1 [9], the “DDI risk R, victim drug fenoterol” value is given as 1.00; the “DDI risk R, victim drug ipratropium” value was 1.01; the “DDI risk R, victim drug metformin” value is recorded as 1.01; the “DDI risk R, victim drug methylnaltrexone” value was 1.01. On OCT1 [9], the “DDI risk R, victim drug salbutamol” value is 1.01; the “DDI risk R, victim drug sumatriptan” value is 1.00; the “DDI risk R, victim drug zolmitriptan” value is given as 1.01. In addition, in [4], the “cmax = Imax” value is recorded as 5.20 ng/mL, the fraction unbound was 0.33 and the tmax is reported as 6.7 h. Also, the t1/2 in data set [4] (ref Hardman, 2018, fenoterol Tzvetkov et al) was 9.9 h. In the data set on mOct1, the Km was 1.81 µM. Besides, at OCT1 [10] (cocktail, fold change to the negative control, n = 12), the “human OCT1 uptake [fold change to pcDNA5]” value is listed as 28.6 fold change to pcDNA5. On OCT1 [10] (extended cocktail, Fig. 6), the “transport by OCT1” value was “transported only by OCT1 and OCT2”.
